These results are taken from US4543254A, “Antiphlogistic/antipyretic/analgesic agents containing theobromine or theophylline derivatives as active ingredient” (Eisai Co., Ltd., priority 1982, dated 1985).

The nature of data set [1]: Analgesic activity: acetic acid writhing method (mice). It counts as in vivo, ddy-strain male mice. The conditions noted are these: Mus musculus, po. On the procedure:
(a) Acetic acid writhing method^1
A 0.7% acetic acid solution was injected intraperitoneally to ddy-strain male mice (20 to 25 g) in an amount of 0.1 ml per 10 g mouse body weight to cause a writhing syndrome typified by stretching of the hind legs. The inhibitory action of each test compound against said symptom was observed as a measure of the analgesic activity of the compound.
(1) Hendershot, L. C. and Forsaith, J.: J. Pharmacol. Exp. Ther., 125, 237 (1959).
(2) Litchfield, Jr., J. T. and Wilcoxon, F.: J. Pharmacol. Exp. Ther., 96, 99 (1949).

Data set [2] can be described thus: Antiphlogistic activity: carrageenin paw edema (rats). It counts as in vivo, Wistar rats. The following applies: Rattus norvegicus, po, 3 hours. On the procedure: (3) Antiphlogistic activity^5
Each test compound of this invention was administered orally to Wistar rats of about 300 g body weight, and 30 minutes later 0.05 ml of a 1% carrageenin solution was injected into a paw of each rat. After three hours, the paw volume was measured to determine the degree of edema formation and the 30% effective dose (ED30) was calculated from the inhibition rate relative to a control group.
(5) R. Vinegar et al: J. Pharmacol. Exp. Ther., 166, 96 (1969)

Data set [3] can be described thus: in vivo. The following applies: po, p.o., read-out: Safety margin (LD50/ED50). On the procedure: Ten mice were used for each dose and morality was determined for 3 days after administration of each test compound of the invention. In the case of the rats, 5 rats were used for each dose and morality was determined 7 days after administrations.
Data set [4] is described as follows: Analgesic activity: bradykinin-induced pain response (rats). It counts as in vivo, SD male rats. The following applies: Rattus norvegicus, po, read-out: Analgesic activity ED50. On the procedure:
(B) Bradykinin-induced pain response^3,4
A polyethylene tube was inserted into a common right carotid artery of SD male rats (250 to 350 g) and 0.5 microngram per 0.1 ml of bradykinin was injected into the artery through said tube. Response induced by bradykinin such as flexin of the right forelimb, dextro-rotation of the head and rearing were considered as being indices of pain response, and the analgesic action of each test compound was determined by observing its inhibition of responses such symptoms.
(3) T. Abe, T. Kaneko and H. Takagi: Japan Pharm. Soc. Bul., 67, 9-14 (1971)
(4) G. F. Blane: J. Pharma. Pharmacol., 19, 367 (1967)

Data set [5] in a line: Antipyretic activity: dry yeast-induced fever (rats). It counts as in vivo, SD male rats. The following applies: Rattus norvegicus, po, read-out: ED, effective dose for reducing the fever by more than 1° C. when the compound action is at the peak. On the procedure:
A 2% suspension of dry yeast was injected sub-Cutaneously to SD male rats of 250 to 300 g body weight in an amount of 2 ml/animal to cause a fever, and 4 hours later, the compounds of this invention and control drugs were administered orally. The rectal temerature of each rat was measured periodically, and the dosage of each compound required to reduce the fever by more than 1° C. at the peak of its activity was determined.

The test system of data set [6] is ddy male mice. The following applies: p.o., control drugs, given in Japan National Formulary, 6th Ed. (1982); cited from earlier work.
Data set [7] relates to SD male rats. The conditions noted are these: p.o., control drugs, given in Japan National Formulary, 6th Ed. (1982); cited from earlier work.
Setting [8] is: rats, p.o., bradykinin-induced pain.

Where two headings read alike, the source gives them in different places.

The ED50 is the midpoint of the dose-response relation. In data set [1], `Cn1cnc2c1c(=O)n(CCCCN1CCN(c3ccc(F)cc3)CC1)c(=O)n2C` [Compound E', 1-(4-(4-p-fluorophenylpiperazinyl-(1))-n-butyl)theobromie.2HCl] had an ED50 of 7.8 mg/kg. In data set [2], this molecule gave an ED30 of 25 mg/kg. Besides, in data set [3] (mouse, mice), the selectivity ratio was determined as 26.

`OC(CN1CCCCC1)c1cc(-c2ccccc2)on1` (stereo not shown) [Control drug III, 3-(1-hydroxy-2-piperadinoethyl)-5-phenylisoxazole, reference compound]: the ED50 in data set [1] stood at 120 mg/kg; in data set [4] (setting [8]), 160 mg/kg. The minimal effective dose in data set [5] amounted to 160 mg/kg. Besides, the selectivity ratio in data set [3] (mouse, mice) worked out at 5.1; in data set [3] (rat, rats), 12. The “Acute toxicity LD50” value in data set [6] is recorded as 612 mg/kg; in data set [7], 1,978 mg/kg.

`Cn1cnc2c1c(=O)n(CCCN1CCN(c3ccc(Cl)c(Cl)c3)CC1)c(=O)n2C` [Compound A', 1-(3-(4-(3,4-dichlorophenyl)piperazinyl-(1))-n-propyl)theobromine]: the results for the ED50 in data set [1] and in data set [4] (setting [8]) were 7.2 mg/kg and 40 mg/kg, respectively. Moreover, the minimal effective dose in data set [5] came out at 40 mg/kg. In data set [2], the ED30 is 25 mg/kg.

For the molecule `Cn1c(=O)c2c(ncn2CCCCCN2CCN(c3cccc(C(F)(F)F)c3)CC2)n(C)c1=O` [Compound F], the ED50 in data set [1] was determined as 27.1 mg/kg; in data set [4] (setting [8]) it was 63 mg/kg. For the same molecule, the minimal effective dose in data set [5] amounted to 10 mg/kg. Also, the ED30 in data set [2] came out at 25 mg/kg. In addition, the selectivity ratio in data set [3] (mouse, mice) was no less than 30; in data set [3] (rat, rats), 10.5.

`Cn1c(=O)c2c(ncn2CCCCN2CCN(c3ccc(F)cc3)CC2)n(C)c1=O` [Compound A]: the ED50 in data set [1] is 10 mg/kg; in data set [4] (setting [8]) it was 47 mg/kg. In addition, in data set [5], the minimal effective dose came to 10 mg/kg. Moreover, in data set [2], the ED30 is 10 mg/kg. For the same molecule, the selectivity ratio was 34 in data set [3] (mouse, mice) and 7.5 to 10.6 in data set [3] (rat, rats).

With `O=C(Cn1c(=O)sc2ccc(Cl)cc21)N1CCN(CCO)CC1` [Control drug II, 4-((5-chloro-2-oxo-3(2H)-benzothiazolyl)acetyl)-1-piperazineethanol, reference compound], the ED50 in data set [1] is 66 mg/kg; in data set [4] (setting [8]) it was no less than 160 mg/kg. Moreover, the minimal effective dose in data set [5] came out at 40 mg/kg. Also, the selectivity ratio in data set [3] (mouse, mice) is 8.5; in data set [3] (rat, rats), no more than 23. The figures for the “Acute toxicity LD50” value in data set [6] and in data set [7] were 564 mg/kg and 3,600 mg/kg, respectively.

With `COc1cc(C)nc(-n2nc(C)cc2OC)n1` [Control drug I, 4-methoxy-2-(5-methoxy-3-methylpyrazol-1-yl)-6-methylpyrimidine, reference compound], the figures for the ED50 in data set [1] and in data set [4] (setting [8]) were 240 mg/kg and no less than 160 mg/kg, respectively. Moreover, the minimal effective dose in data set [5] was determined as 40 mg/kg. Besides, the selectivity ratio in data set [3] (mouse, mice) is 4.3; in data set [3] (rat, rats), no more than 3. In data set [7], the “Acute toxicity LD50” value is on record as 526 mg/kg.

As for `Cn1c(=O)c2c(ncn2CCCCN2CCN(c3ccc(Cl)cc3)CC2)n(C)c1=O` [Compound D], the ED50 in data set [1] came to 26 mg/kg; in data set [4] it was 68 mg/kg. For the same molecule, the minimal effective dose in data set [5] is 40 mg/kg. In data set [2], this molecule registered an ED30 of 25 mg/kg. Also, the selectivity ratio is 22 in data set [3] (mouse, mice) and 7.6 in data set [3] (rat, rats).

For `Cc1ccc(N2CCN(CCCn3cnc4c3c(=O)n(C)c(=O)n4C)CC2)cc1C` [Compound C], the 50% effective dose (ED50) in data set [1] stood at 13.3 mg/kg; in data set [4] (setting [8]), 57 mg/kg. The minimal effective dose in data set [5] was 10 mg/kg. For the same molecule, the selectivity ratio in data set [3] (mouse, mice) was greater than 60; in data set [3] (rat, rats), 13.6.

On to `Cc1cccc(N2CCN(CCCCCn3c(=O)c4c(ncn4C)n(C)c3=O)CC2)c1` [Compound G', 1-(5-(4-m-methylphenylpiperazinyl-(1))-n-pentyl)theobromine.2HCl], for which the ED50 in data set [1] amounted to 13.5 mg/kg. In addition, in data set [2], the ED30 is 25 mg/kg. In addition, the selectivity ratio in data set [3] (mouse, mice) is 22.

Take `Cn1cnc2c1c(=O)n(CCCCN1CCN(c3ccc(Cl)c(Cl)c3)CC1)c(=O)n2C` [Compound F', 1-(4-(4-(3,4-dichlorophenyl)piperazinyl-(1))-n-butyl)theobromine.2HCl]: it took a dose of 7.8 mg/kg to reach the 50% effect level in data set [1] (ED50). The selectivity ratio in data set [3] (mouse, mice) lay in the range of 51 to 103.

`COc1ccccc1N1CCN(CCCCn2c(=O)c3c(ncn3C)n(C)c2=O)CC1` [Compound D', 1-(4-(4-o-methoxyphenylpiperazinyl-(1))-n-butyl)theobromine.2HCl] returned an ED50 in data set [1] of 3.1 mg/kg. Moreover, the selectivity ratio in data set [3] (mouse, mice) fell in the range of 130 to 258.

For `Cn1cnc2c1c(=O)n(CCCN1CCN(c3ccccc3Cl)CC1)c(=O)n2C` [Compound C', 1-(3-(4-o-chlorophenylpiperazinyl-(1))-n-propyl)theobromine.2HCl], in data set [1], it took a dose of 3.3 mg/kg to reach the 50% effect level (ED50). The ED30 in data set [2] was 10 mg/kg. In data set [3] (mouse, mice), the selectivity ratio amounted to 61.

`Cc1cccc(N2CCN(CCn3c(=O)c4c(ncn4C)n(C)c3=O)CC2)c1C` [Compound B', 1-(2-(4-(2,3-dimethylphenyl)piperazinyl-(1))-ethyl)theobromine.2HCl]: the median effective dose (ED50) was 2.6 mg/kg in data set [1] and 20 mg/kg in data set [4] (setting [8]). Also, the selectivity ratio in data set [3] (mouse, mice) is 230; in data set [3] (rat, rats), no less than 100.

In the case of `Cn1c(=O)c2c(ncn2CCCCCN2CCN(c3ccc(Cl)cc3)CC2)n(C)c1=O` [Compound B], the ED50 in data set [1] stood at 13.8 mg/kg; in data set [4] (setting [8]), 40 mg/kg. The minimal effective dose in data set [5] is 40 mg/kg. The ED30 in data set [2] is 50 mg/kg. In addition, the selectivity ratio is 51 in data set [3] (mouse, mice) and 8.8 to 12.5 in data set [3] (rat, rats).
